Test results published in PubChem BioAssay (NCI).
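Values below derive from 48-hour exposures of cells grown in 96-well plates, with endpoints linearly interpolated between the two concentrations bracketing the appropriate inhibition level. GI50 = concentration required for 50% inhibition of growth. TGI denotes the concentration required for complete inhibition of growth.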

What was measured:
Assay in all cases: growth of human tumour cells (NCI), 48 h
[1] = tested on: NCI/ADR-RES ovarian
[2] = tested on: U251 CNS
[3] = tested on: KM12 colon
[4] = tested on: LOX IMVI melanoma
[5] = tested on: HL-60(TB) leukemia
[6] = tested on: M14 melanoma
[7] = tested on: SK-MEL-28 melanoma
[8] = tested on: MCF7 breast
[9] = tested on: SF-268 CNS
[10] = tested on: A498 renal

| Compound | GI50 [1] [µM] | TGI [1] [µM] | GI50 [2] [µM] | TGI [2] [µM] | GI50 [3] [µM] | TGI [3] [µM] | GI50 [4] [µM] | TGI [4] [µM] | GI50 [5] [µM] | TGI [5] [µM] | GI50 [6] [µM] | TGI [6] [µM] | GI50 [7] [µM] | TGI [7] [µM] | GI50 [8] [µM] | TGI [8] [µM] | TGI [9] [µM] | TGI [10] [µM] | GI50 [9] [µM] | GI50 [10] [µM] |
| --- | --- | --- | --- | --- | --- | --- | --- | --- | --- | --- | --- | --- | --- | --- | --- | --- | --- | --- | --- | --- |
| COc1cc2c(cc1OC)-c1ncc3cc4c(cc3c1C2)OCO4 | 24.8 | 49.6 | 41.4 | > 100 | 38.1 | > 100 | > 100 | > 100 | 10.3 | 22 | 19.6 | 82.5 | > 100 | > 100 | 12.4 | 30.6 |  |  |  |  |
| O=C(Nc1cccc(C(F)(F)F)c1)c1cc(Br)cc(Br)c1O |  | 6.78 |  | > 10 |  | > 10 |  | 4.95 |  | 5 |  | > 10 |  | > 10 |  | > 10 | > 10 |  |  |  |
| C[N+](C)(C)CC1CCCC/C1=N\O (configuration not stated) |  |  |  | > 100 |  | > 100 |  | > 100 |  | > 100 |  | > 100 |  | > 100 |  |  | > 100 | > 100 |  |  |
| O=C(CC(=O)c1ccccc1)c1ccccc1 | 16.8 | 44 | 2.15 | 8.05 | 3.98 | > 100 |  |  | 12.3 | > 100 | 14.1 | 44.7 | 31 | > 100 | 10.1 | 82.3 | 57.7 |  | 10.9 |  |
| C#CCN(C)C(=O)N(CC#C)N=O |  |  |  | > 100 |  | > 100 |  | > 100 |  | > 100 |  | > 100 |  | > 100 |  |  | > 100 | > 100 |  |  |
| Nc1nc(N)c(-c2ccccc2)c(CCC(=O)Nc2ccc(Cl)cc2)n1 |  |  |  | > 100 |  | > 100 |  |  |  | > 100 |  | > 100 |  | > 100 |  |  | > 100 | > 100 |  |  |
| CC(=O)O[C@H]1C=CC23OC(=O)[C@]1(C)[C@H]2[C@H](C(=O)O)C12CC(=O)[C@@](CO)(CC[C@H]13)C2 |  |  |  | > 100 |  | > 100 |  | > 100 |  | > 100 |  | > 100 |  | > 100 |  |  | > 100 |  |  |  |
| OCC(O)C(OC1OC(CO)C(O)C(O)C1O)c1nn(-c2ccccc2)c2nc3cc(Cl)ccc3nc12 (configuration not stated) |  |  |  | > 100 |  | > 100 |  | > 100 |  |  |  | > 100 |  | > 100 |  |  | > 100 | > 100 |  |  |
| Cc1ccc(S(=O)OC23CC4CC(CC(C4)C2)C3)cc1 (configuration not stated) |  |  |  | > 100 |  | > 100 |  | > 100 |  | 44.3 |  | > 100 |  | > 100 |  |  | > 100 | > 100 |  |  |
| O=C(c1ccccc1)C1C(C(=O)c2ccccc2)C(c2ccccc2)N(c2ccccc2)C1c1ccccc1 (configuration not stated) |  | > 100 |  | > 100 |  |  |  | > 100 |  | > 100 |  | > 100 |  | > 100 |  | > 100 | > 100 |  |  |  |
| CC1=C(C(=O)Nc2ccccc2)C(c2ccc(C(C)C)cc2)C(C(=O)Nc2ccccc2)=C(C)N1 |  |  |  | 45.1 |  | 77.8 |  | 30.4 |  | 30.7 |  | 55.9 |  | > 63.7 |  |  | > 100 | > 72.3 |  |  |
| Cn1cc(NC(=O)c2cc(NC(=O)CCCCCCC(=O)Nc3cc(C(=O)Nc4cc(C(=O)NCCC(=N)N)n(C)c4)n(C)c3)cn2C)cc1C(=O)NCCC(=N)N |  |  |  | 68.8 |  | 13.3 |  | 18.5 |  | 8.75 |  | 33.9 |  | 16.9 |  |  | > 100 | 5.28 |  |  |
| Cc1nnc(-c2ccc(-c3nc4ccccc4o3)cc2)o1 | > 100 | > 100 | 16.4 | 34.8 | 43.3 | > 100 | > 100 | > 100 | 56.8 | > 100 | > 100 | > 100 | > 100 | > 100 | 26.7 | > 100 | 92.2 |  | 28.6 |  |
| CCOC(=O)NC(=O)c1c[nH]c(=O)[nH]c1=O |  |  |  | > 100 |  | > 100 |  | > 100 |  | > 100 |  | > 100 |  | > 100 |  |  |  | > 100 |  |  |
| COC(=O)C1CC(C(=O)OC)c2nc3cc(C)c(C)cc3nc21 (configuration not stated) |  |  |  | > 100 |  | > 100 |  | > 100 |  | > 100 |  | > 100 |  | > 100 |  |  | > 100 | > 100 |  |  |
| Nc1ccc(C(=O)N/C(=C\c2cccc([N+](=O)[O-])c2)c2nc3c4c(ccc3[nH]2)C(=O)c2ccccc2C4=O)cc1 |  |  |  | > 100 |  |  |  | > 100 |  |  |  | > 100 |  | > 100 |  |  | > 100 | 57.7 |  |  |
| CCOC(=O)/C(C#N)=C/Nc1ccc(-c2nc3ccccc3[nH]2)cc1 | 41.4 | 66.1 | 23.2 | 65.9 | 16.1 | 44.1 | 19.4 | 41.5 | 40.5 | 97.3 | 62.3 | > 100 | 22.5 | 54.1 |  |  | 47.4 |  | 19.2 |  |
| COc1cc([C@@H]2c3cc4c(cc3C[C@H]3COC(=O)[C@@H]32)OCO4)cc2c1OCO2 |  | < 0.01 |  | > 100 |  | 3.2 |  | > 68.2 |  |  |  | > 100 |  | > 100 |  | > 100 | > 100 |  |  |  |
| C1C[OH+]CC[OH+]CC[OH+]CC[OH+]CC[OH+]CC[OH+]1.[Cl-].[Nb+5] |  |  | > 100 | > 100 | > 100 | > 100 | > 100 | > 100 | > 100 | > 100 | > 100 | > 100 | > 100 | > 100 |  |  | > 100 | > 100 | > 100 | > 100 |
| O=S(=O)(O)ONC1=NCCN1 | > 100 | > 100 | > 100 | > 100 | > 100 | > 100 | 76.6 | > 100 | > 100 | > 100 | > 100 | > 100 | > 100 | > 100 | 16.1 | > 100 | > 100 |  | > 100 |  |
